Data on 1 molecule can be found in US20170020909A1, “METHODS OF TREATING GLAUCOMA USING AMP-ACTIVATED PROTEIN KINASE (AMPK) ACTIVATORS” (Massachusetts Eye and Ear Infirmary, priority 2014, published 2017).

For the test, the system named is SPARC. The experiment in a line: Immunoblot of SPARC in conditioned media of human TM cells. Type of test: cell-based. The note with it: 24 hours. Here is the method: FIGS. 5A-E. AICAR suppresses ECM proteins in primary human TM cells under basal and TGF-β2 stimulatory conditions. (A) Representative immunoblots of ECM proteins from conditioned media (CM) of human TM cells treated for 24 hours with PBS vehicle or 0.5 mM AICAR and (B) integrated band intensities calculated from those immunoblots. (C) Representative immunoblots of ECM proteins from CM of human TM cells under stimulation with 2.5 ng/mL TGF-β2. Cells were pre-incubated for 1 hour with PBS or 0.5 mM AICAR prior to full 24-hour treatment. (D) Mean integrated band intensities. Data in panels B and D are expressed as mean±SEM (*p<0.05 vs. PBS vehicle by student t-test; n=5-7). (E) Representative 10% acrylamide gels stained with Coomassie Brilliant Blue as a loading control. […]
At the conclusion of each experiment for matricellular and ECM protein detection, conditioned media (CM) from TM cell cultures was harvested and centrifuged at 5000 rpm for 10 minutes at 4° C. The supernatant was then concentrated (Amicon Ultra-4 Filter Unit, 10 kDa; Millipore, Milford, Mass.), and protein content quantified using the DC Protein Assay kit adhering to manufacturer's protocols (Bio-Rad, Hercules, Calif.). […] Samples were then centrifuged at 14,000 rpm for 15 minutes at 4° C. and protein content quantified. […]

`NC(=O)c1ncn([C@@H]2O[C@H](CO)[C@@H](O)[C@H]2O)c1N` [AICAR, 5-Aminoimidazole-4-carboxamide riboside]: where the note is “0.5 mM AICAR vs PBS vehicle, basal”, the “change in SPARC (mean integrated band intensity)” value is listed as “no change”. For the same molecule, the “decrease in SPARC level” value (0.5 mM AICAR, under TGF-β2 stimulation with 2.5 ng/mL) was found to be 64%.
